Results published in patent US10464901B2, “Composition including benzene diamine derivative for preventing or treating degenerative brain diseases” (UNIST(ULSAN NATIONAL INSTITUTE OF SCIENCE AND TECHNOLOGY), priority 2017, dated 2019).

Key:
Cu(II)-Aβ = test: Aβ aggregation inhibition, gel electrophoresis and Western blotting with anti-Aβ antibody (6E10); type: biochemical
Excerpt: It was examined whether the benzene diamine derivatives of the present disclosure have inhibitory effects on Aβ aggregation. Aβ has two isoforms, and therefore, effects on Aβ40 and Aβ42 were examined, respectively. When metals are involved in protein folding, the probability of abnormal folding is high. In this case, the probability of Aβ aggregate formation is further increased.
In order to perform molecular analysis of Aβ aggregation-inhibitory effects of the benzene diamine derivatives of the present disclosure, gel electrophoresis and Western blotting were performed by using anti-Aβ antibody (6E10). As a control group, compound 1
In detail, each sample (10 μl) was separated on a 10-20% Tris-tricine gel (Invitrogen, Grand Island, N.Y., USA). After separation, the proteins were transferred onto a nitrocellulose membrane and blocked with bovine serum albumin (BSA, 3% w/v, Sigma-Aldrich, St Louis, Mo., USA) in Tris-buffered saline (TBS) containing 0.1% Tween-20 (TBS-T) at room temperature for 2 hours or at 4° C. overnight. The membrane was incubated in a 2% BSA (w/v in TBS-T) solution, together with anti-Aβ antibody (6E10, 1:2,000, Covance, Princeton, N.J., USA), at room temperature for 4 hours or at 4° C. overnight. The membrane was washed with TBS-T (3×, 10 min), and a secondary mouse antibody (1:5,000 in 2% BSA w/v in TBS-T; Cayman Chemical Company, Ann Arbor, Mich., USA) was added thereto, followed by incubation at room temperature for 1 hour. Thermo Scientific SuperSignal West Pico Chemiluminescent Substrate (Thermo Scientific, Rockford, Ill., USA), Biosesang ECL Plus kit (Biosesang, Gyeonggi-do, Republic of Korea), or homemade ECL kit53 were used for visualization, and ChemiDoc MP Imaging System (Bio-Rad, Hercules, Calif., USA) was used for detection.

[1] = tested on: APP/PS/Tau dementia mouse model; test: Morphological change of brain of dementia mouse model; type: in vivo; conditions: oral 100 μg/kg twice a week for 2 months, FIG. 6
Excerpt: In order to examine therapeutic effects of the benzene diamine derivatives on dementia, dementia mouse models were orally administered with the benzene diamine derivative, and morphological changes in the brains thereof were examined.
In detail, APP/PS/Tau was purchased as the dementia mouse model from Jackson lab (BAR HARBOR, USA), and APP/Tau female and APP/PSen1de9 purchased from Taconic (Hudson, USA) were cross-mated for 6 generations, and 4-month-old mouse models were obtained from F1. The dementia mouse models were divided into groups of 6 mice, and among the dementia mouse models, a control group was orally administered with a vehicle (PBS) for 2 months, and an experimental group was orally administered with 100 μg/kg/0.1 ml of N^1-(pyridin-2-ylmethyl)benzene-1,4-diamine (Compound 2) twice a week for 2 months. Thereafter, the mice were sacrificed, and their brains were removed. Their longitudinal sections were cut, and morphological changes were examined. For comparison, a normal mouse was sacrificed and its brain was removed. Its longitudinal section was cut, and morphological changes were examined.

[2] = tested on: APP/PS/Tau dementia mouse model; test: Morris water maze test, memory capacity of dementia mouse model; type: in vivo; conditions: oral 100 μg/kg twice a week for 2 months
Procedure: In order to investigate enhancement of spatial cognition and memory in dementia mouse models by the benzene diamine derivatives of the present disclosure, a Morris water maze (Harvard Apparatus, USA) test was performed.
In detail, a water maze composed of a stainless steel pool with a diameter of 150 cm×a height of 60 cm and an escape platform (10 cm in diameter, 30 cm in height) was filled with water at 22±2° C., and the height was 2 cm above the platform such that when a mouse sat on the escape platform, the body was allowed to come out of the water. […] Escape latency was measured as the time taken for the experimental animal to go to the escape platform when the experimental animal went to the escape platform and stayed thereon for more than 20 seconds. This test was performed three times a day, and a mean value was determined as mean escape latency. The escape latency was recorded on the computer program (Smart Video Tracking System V3.0, PanLab SL, Barcelona, Spain) by installing a camera on the ceiling above the water tank. The experiment was performed three times a day for 6 days, and at this time, the possibility of accidentally visiting the escape platform was minimized by sequentially changing the positions of the experimental animals in the water tank. In the experiment, a normal mouse, a control dementia mouse administered with a vehicle (PBS) and an experimental dementia mouse administered with 100 μg/kg of N^1-(pyridin-2-ylmethypenzene-1,4-diamine (Compound 2) twice a week for 2 months were used after completing administration, as in Experimental Example 1.

oligomeric Aβ42 = biological target: T1, oligomeric Aβ42 (Homo sapiens, UniProt P05067); test: Brain tissue immunohistofluorescence, oligomeric Aβ; type: in vivo, mouse; conditions: oral 100 μg/kg twice a week for 2 months, confocal, FIG. 8
T1 construct: from tissue; host or cells: brain of dementia mouse models
Procedure: Oligomeric Aβ formation in the brain tissue may cause neuronal cell death by neuronal cytotoxicity, which may cause dementia. Therefore, anatomical analysis of the brain tissue was performed to examine whether the benzene diamine derivatives of the present disclosure inhibit neuronal cytotoxicity by oligomeric Aβ in dementia mouse models.
In detail, as in Experimental Example 7-1, the dementia mouse models were prepared and their brain tissues were stained. Anti-oligomeric Aβ primary antibody (ab126892, Abcam, Eugene, USA) labeled with QD525 probe (red fluorescence) was used to examine changes in the quantity of oligomeric Aβ42. Further, to measure changes of plaques, the tissues were stained with a fluorescent staining reagent MX04 (blue) and incubated at 4° C. for 12 hours. Thereafter, the tissues were observed under a confocal microscope at 0.5×10.

PAMPA-BBB analysis = type: in vitro ADME
Procedure: […] PAMPA-BBB analysis was performed by using a PAMPA Explorer kit (pION, Inc. Billerica, Mass., USA) according to the manufacture's protocol with slight modifications. […] The prepared solution was put in each well of a donor plate (200 μl, repeated 12 times). A polyvinylidene fluoride (PVDF, […]) filter membrane on an acceptor plate was coated with BBB-1 lipid formulation (5 μl, pION). The acceptor plate was placed on top of the donor plate to generate a “sandwich”. Brain sink buffer (BSB, 200 μl, pION) was added to each well of the acceptor plate. The sandwich-shaped plate was incubated for 4 hours at room temperature without stirring. UV-vis spectra of the solutions in the reference, acceptor, and donor plates were measured using a microplate reader. A PAMPA Explorer software [v. 3.8 (pION)] was used to calculate the −log Pe values for compounds. CNS±designations were assigned by comparison with compounds that were identified in previous reports.

T1 sequence (P05067 672-713 limits assumed): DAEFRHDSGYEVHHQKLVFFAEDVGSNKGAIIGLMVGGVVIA

oligomeric Aβ in brain (oligomeric Aβ42): oligomeric Aβ was hardly observed
PAMPA-BBB permeability class (PAMPA-BBB analysis; 50 μM, incubation 4 hrs, U.V): High
Papp at 4 h, 50 μM (PAMPA-BBB analysis; PAMPA, pH 7.4, 50 μM, incubation 4 hrs, U.V, read-out: Pe): 12.5 ×10⁻⁶ cm/s
CNS± designation (PAMPA-BBB analysis; assigned by comparison with compounds identified in previous reports): (CNS+)
Structure (SMILES): Nc1ccc(NCc2ccccn2)cc1 [Compound 2, N^1-(pyridin-2-ylmethyl)benzene-1,4-diamine]
Cu(II)-Aβ (inhibitory effect on Aβ aggregation) (Cu(II)-Aβ; Table 1 summary of Example 2, symbols not defined): ◯
Cu(II)-Aβ-inhibitory effect (Cu(II)-Aβ; two kinds of Aβ, FIG. 1): very excellent Cu(II)-Aβ-inhibitory effect on two kinds of Aβ
brain morphology / longitudinal section [1]: brain morphology similar to that of the normal group
difference in mean escape latency vs control group at 4 days ([2]; AD mice): 16 s
difference in mean escape latency vs dementia group at 5 days ([2]; AD mice): 19 s
mean escape latency at 4 days ([2]; AD mice): 26 ± 1 s
mean escape latency at 5 days ([2]; AD mice): 24 ± 1 s
mean escape latency at 3 days (worded) ([2]; vs dementia control group, FIG. 5): significantly short mean escape latency
